Source: ChEMBL document CHEMBL5291721, “A preclinical secondary pharmacology resource illuminates target-adverse drug reaction associations of marketed drugs” (Nat Commun, 2023)

Key:
[1] = target: T1, Peroxisome proliferator-activated receptor gamma (Homo sapiens, UniProt P37231); format: functional
T1 sequence (P37231 whole entry): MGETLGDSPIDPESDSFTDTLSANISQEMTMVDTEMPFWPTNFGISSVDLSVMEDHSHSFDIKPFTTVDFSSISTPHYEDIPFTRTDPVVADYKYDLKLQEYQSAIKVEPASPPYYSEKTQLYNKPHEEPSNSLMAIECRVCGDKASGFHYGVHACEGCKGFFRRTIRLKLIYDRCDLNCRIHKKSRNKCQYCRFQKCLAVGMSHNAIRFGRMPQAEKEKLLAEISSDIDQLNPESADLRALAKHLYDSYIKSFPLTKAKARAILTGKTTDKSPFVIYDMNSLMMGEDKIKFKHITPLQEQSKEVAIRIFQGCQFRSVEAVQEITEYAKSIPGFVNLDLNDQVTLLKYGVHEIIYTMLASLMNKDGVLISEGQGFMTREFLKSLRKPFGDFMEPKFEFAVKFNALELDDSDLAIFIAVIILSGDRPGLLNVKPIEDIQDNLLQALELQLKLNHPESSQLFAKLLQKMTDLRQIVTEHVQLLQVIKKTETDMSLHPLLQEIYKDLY

Glucocorticoid receptor = target: T2, Glucocorticoid receptor (Homo sapiens, UniProt P04150); format: functional
T2 sequence (P04150 whole entry): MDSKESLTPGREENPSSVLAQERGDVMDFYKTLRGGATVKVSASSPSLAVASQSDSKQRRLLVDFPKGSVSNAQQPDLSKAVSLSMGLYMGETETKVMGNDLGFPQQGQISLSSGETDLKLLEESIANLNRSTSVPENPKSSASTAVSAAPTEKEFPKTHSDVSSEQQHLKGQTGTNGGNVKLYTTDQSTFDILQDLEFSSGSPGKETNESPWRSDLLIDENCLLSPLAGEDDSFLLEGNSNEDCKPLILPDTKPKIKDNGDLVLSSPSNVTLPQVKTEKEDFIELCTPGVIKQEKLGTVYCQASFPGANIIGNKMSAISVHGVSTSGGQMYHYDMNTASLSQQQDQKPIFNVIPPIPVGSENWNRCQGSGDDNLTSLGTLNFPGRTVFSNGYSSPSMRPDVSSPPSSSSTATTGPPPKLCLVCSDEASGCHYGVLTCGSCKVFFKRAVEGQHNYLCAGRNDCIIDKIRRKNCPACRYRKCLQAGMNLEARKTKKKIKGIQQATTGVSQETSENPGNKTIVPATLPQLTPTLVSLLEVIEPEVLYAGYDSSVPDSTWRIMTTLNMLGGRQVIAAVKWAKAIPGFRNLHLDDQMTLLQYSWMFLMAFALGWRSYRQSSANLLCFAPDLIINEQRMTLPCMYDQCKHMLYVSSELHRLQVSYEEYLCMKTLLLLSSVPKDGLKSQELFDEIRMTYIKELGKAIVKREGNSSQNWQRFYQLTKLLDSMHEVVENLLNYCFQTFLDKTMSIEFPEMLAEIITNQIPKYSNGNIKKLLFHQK

[2] = target: Sodium channel protein type 5 subunit alpha (Homo sapiens, UniProt Q14524); format: functional, cell-based
Estrogen receptor = target: T3, Estrogen receptor (Homo sapiens, UniProt P03372)
T3 sequence (P03372 whole entry): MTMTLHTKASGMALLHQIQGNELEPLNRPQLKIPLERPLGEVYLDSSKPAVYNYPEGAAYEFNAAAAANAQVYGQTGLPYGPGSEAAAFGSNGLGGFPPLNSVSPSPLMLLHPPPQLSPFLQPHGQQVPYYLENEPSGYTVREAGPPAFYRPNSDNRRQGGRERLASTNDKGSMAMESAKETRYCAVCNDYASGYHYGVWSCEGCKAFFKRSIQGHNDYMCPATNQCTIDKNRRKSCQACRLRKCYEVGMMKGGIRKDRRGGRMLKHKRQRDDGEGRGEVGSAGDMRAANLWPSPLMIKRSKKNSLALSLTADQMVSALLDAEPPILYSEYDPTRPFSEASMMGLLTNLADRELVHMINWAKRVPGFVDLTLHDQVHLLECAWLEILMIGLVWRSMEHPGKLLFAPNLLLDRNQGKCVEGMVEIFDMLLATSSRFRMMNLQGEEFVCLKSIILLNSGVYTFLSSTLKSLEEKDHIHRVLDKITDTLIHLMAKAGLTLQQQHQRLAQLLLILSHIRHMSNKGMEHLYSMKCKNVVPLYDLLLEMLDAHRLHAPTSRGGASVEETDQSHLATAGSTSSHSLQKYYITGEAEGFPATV

Androgen receptor = target: T4, Androgen receptor (Homo sapiens, UniProt P10275)
T4 sequence (P10275 whole entry): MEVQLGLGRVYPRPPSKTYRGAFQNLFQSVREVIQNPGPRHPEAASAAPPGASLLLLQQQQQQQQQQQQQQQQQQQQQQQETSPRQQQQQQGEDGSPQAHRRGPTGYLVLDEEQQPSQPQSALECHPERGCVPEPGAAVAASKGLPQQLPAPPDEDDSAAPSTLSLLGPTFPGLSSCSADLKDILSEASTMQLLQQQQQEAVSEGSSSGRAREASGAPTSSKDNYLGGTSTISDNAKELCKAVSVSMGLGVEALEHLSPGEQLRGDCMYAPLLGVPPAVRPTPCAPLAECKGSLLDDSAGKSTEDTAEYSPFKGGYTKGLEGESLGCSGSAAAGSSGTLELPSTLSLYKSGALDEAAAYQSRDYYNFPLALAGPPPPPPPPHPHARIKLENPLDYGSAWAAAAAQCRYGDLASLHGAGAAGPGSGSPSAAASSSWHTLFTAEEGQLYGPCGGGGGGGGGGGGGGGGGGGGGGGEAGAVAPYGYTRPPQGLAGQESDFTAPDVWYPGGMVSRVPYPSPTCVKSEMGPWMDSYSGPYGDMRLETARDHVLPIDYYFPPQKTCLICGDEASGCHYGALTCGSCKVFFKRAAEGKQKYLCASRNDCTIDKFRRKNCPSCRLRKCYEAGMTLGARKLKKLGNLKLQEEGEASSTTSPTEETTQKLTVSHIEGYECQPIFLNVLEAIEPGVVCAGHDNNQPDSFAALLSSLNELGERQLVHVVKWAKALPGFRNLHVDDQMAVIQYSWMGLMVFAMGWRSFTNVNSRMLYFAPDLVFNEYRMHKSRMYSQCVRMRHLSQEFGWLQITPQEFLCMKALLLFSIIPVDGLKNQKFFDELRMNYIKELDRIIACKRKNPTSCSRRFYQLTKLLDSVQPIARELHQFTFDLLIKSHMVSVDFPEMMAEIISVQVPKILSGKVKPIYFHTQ

[3] = target: Gamma-aminobutyric acid receptor subunit alpha-1/alpha-2/beta-2/gamma-2 (Homo sapiens, UniProt P14867+P18507+P47869+P47870); format: protein-complex assay
Also: assay procedure not described here.

Sequence of Sodium channel protein type 5 subunit alpha (Q14524 whole entry): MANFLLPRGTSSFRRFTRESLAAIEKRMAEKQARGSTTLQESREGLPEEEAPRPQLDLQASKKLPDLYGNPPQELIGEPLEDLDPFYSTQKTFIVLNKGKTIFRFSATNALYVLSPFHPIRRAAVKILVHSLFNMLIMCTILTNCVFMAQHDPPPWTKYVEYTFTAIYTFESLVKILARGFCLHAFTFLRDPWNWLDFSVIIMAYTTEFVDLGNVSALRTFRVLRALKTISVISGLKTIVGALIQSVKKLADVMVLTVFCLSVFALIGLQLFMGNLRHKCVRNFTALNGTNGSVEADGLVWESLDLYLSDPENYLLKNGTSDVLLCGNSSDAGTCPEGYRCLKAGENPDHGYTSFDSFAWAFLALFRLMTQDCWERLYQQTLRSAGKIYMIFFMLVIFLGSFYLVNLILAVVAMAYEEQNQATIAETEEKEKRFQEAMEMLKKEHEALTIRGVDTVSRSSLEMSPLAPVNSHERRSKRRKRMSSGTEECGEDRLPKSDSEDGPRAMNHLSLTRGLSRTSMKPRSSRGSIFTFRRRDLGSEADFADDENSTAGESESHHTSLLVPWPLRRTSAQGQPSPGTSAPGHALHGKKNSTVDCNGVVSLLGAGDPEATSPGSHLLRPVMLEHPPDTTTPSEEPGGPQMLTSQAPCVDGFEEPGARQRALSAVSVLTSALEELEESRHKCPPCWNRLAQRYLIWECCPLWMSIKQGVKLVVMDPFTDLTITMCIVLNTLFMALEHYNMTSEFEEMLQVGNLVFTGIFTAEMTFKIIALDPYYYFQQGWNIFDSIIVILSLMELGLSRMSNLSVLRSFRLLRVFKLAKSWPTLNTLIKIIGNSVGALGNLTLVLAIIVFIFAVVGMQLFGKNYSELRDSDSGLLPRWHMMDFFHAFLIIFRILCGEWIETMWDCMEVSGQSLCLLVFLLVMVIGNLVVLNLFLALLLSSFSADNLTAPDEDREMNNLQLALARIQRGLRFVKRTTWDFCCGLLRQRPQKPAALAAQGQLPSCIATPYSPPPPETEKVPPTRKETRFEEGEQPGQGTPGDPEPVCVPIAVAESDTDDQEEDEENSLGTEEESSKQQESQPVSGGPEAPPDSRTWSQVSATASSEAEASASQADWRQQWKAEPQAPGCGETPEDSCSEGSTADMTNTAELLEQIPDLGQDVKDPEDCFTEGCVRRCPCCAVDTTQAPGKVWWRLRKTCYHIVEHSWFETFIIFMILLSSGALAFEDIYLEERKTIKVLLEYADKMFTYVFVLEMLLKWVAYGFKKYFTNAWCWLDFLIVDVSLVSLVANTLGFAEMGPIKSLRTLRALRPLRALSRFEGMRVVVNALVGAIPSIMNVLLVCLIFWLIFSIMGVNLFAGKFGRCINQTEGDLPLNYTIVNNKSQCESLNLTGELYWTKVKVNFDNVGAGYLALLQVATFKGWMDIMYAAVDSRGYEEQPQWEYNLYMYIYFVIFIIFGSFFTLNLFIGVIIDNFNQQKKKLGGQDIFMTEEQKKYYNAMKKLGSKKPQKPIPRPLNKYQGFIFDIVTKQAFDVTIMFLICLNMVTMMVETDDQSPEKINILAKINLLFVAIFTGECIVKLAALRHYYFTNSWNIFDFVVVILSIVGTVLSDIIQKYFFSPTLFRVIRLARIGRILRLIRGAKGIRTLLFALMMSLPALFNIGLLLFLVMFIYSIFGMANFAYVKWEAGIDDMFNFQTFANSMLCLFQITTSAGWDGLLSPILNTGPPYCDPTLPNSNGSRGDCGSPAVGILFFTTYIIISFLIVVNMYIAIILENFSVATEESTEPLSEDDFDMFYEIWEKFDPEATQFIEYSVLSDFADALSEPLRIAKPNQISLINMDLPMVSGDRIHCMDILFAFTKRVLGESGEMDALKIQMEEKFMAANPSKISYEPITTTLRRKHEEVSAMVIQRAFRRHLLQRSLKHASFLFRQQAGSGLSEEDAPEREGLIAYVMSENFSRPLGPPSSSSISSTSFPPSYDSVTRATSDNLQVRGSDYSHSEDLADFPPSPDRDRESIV
Sequence of Gamma-aminobutyric acid receptor subunit alpha-1/alpha-2/beta-2/gamma-2 (P14867 whole entry): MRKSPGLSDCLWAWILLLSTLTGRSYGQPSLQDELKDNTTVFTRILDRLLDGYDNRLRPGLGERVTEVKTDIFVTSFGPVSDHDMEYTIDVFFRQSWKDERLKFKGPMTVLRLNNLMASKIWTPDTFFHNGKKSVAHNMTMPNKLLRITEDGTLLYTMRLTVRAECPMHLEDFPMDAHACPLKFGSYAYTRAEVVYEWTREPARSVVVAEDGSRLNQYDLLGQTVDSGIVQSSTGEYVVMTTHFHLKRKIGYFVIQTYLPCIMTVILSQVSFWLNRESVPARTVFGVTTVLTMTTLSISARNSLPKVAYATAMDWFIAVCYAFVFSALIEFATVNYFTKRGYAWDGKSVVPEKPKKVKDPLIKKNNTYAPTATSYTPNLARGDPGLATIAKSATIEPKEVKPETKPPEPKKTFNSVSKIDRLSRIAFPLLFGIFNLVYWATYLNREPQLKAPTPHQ
Sequence of Gamma-aminobutyric acid receptor subunit alpha-1/alpha-2/beta-2/gamma-2 (P47870 whole entry): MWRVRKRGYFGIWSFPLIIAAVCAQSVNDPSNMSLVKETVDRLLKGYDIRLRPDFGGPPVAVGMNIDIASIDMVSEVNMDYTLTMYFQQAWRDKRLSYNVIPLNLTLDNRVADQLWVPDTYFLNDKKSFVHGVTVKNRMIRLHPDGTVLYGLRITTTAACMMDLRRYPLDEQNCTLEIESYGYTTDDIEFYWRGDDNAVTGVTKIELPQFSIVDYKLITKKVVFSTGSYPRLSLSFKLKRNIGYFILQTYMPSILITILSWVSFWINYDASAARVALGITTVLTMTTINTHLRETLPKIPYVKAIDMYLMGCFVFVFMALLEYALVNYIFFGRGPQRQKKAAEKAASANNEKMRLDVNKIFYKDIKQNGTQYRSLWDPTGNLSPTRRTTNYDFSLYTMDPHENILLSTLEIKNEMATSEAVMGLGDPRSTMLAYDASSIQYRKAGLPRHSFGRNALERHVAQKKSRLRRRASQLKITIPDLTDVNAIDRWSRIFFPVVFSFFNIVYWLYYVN
Sequence of Gamma-aminobutyric acid receptor subunit alpha-1/alpha-2/beta-2/gamma-2 (P18507 whole entry): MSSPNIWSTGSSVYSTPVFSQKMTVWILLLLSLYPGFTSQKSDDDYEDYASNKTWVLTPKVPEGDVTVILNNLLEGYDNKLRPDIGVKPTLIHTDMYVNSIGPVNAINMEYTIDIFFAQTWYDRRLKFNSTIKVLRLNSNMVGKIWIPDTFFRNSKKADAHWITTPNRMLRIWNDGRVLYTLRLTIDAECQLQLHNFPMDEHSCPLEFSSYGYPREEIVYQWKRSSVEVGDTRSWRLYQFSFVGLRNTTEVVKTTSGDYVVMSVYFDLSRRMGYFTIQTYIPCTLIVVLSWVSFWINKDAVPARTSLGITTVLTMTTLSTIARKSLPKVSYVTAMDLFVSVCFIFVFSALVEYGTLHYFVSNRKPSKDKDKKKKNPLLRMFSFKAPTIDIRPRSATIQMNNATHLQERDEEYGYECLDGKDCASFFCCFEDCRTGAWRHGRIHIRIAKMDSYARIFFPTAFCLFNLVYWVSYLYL
Sequence of Gamma-aminobutyric acid receptor subunit alpha-1/alpha-2/beta-2/gamma-2 (P47869 whole entry): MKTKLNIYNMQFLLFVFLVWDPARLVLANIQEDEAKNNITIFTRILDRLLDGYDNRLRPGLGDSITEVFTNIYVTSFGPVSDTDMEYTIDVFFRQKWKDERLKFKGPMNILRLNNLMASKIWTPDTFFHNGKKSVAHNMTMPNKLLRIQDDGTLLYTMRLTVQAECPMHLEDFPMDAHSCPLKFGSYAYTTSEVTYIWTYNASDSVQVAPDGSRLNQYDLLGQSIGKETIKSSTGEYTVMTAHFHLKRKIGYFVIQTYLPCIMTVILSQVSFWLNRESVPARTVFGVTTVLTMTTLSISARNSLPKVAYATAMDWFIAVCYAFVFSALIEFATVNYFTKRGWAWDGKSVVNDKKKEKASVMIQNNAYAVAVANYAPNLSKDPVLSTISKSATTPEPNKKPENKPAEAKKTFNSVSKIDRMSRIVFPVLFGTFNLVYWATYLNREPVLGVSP

| Structure (SMILES) | AC50 [1] [µM] | AC50 (Glucocorticoid receptor) [µM] | AC50 [2] [µM] | AC50 (Estrogen receptor) [µM] | AC50 (Androgen receptor) [µM] | AC50 [3] [µM] |
| --- | --- | --- | --- | --- | --- | --- |
| CCOCC(O)COc1ccc(NC(=O)CC[S+](C)C)cc1 (stereo not given) | > 30 | > 30 |  |  |  |  |
| CCC[C@@]1(CCc2ccccc2)CC(O)=C([C@H](CC)c2cccc(NS(=O)(=O)c3ccc(C(F)(F)F)cn3)c2)C(=O)O1 | 6.9 | > 30 | > 50 |  |  |  |
| CN1CC2c3ccccc3Oc3ccc(Cl)cc3C2C1 (stereo not given) [ASENAPINE] | > 30 | > 30 | 2 |  |  |  |
| Cn1cnc2c(F)c(Nc3ccc(Br)cc3F)c(C(=O)NOCCO)cc21 [BINIMETINIB] | > 30 | > 30 | > 30 |  |  |  |
| O=C(O)[C@H]1/C(=C/CO)O[C@@H]2CC(=O)N21 [CLAVULANIC ACID] | > 30 | > 30 |  |  |  |  |
| CC(C)/N=c1\cc2n(-c3ccc(Cl)cc3)c3ccccc3nc-2cc1Nc1ccc(Cl)cc1 [CLOFAZIMINE] |  | > 30 |  | 0.13 |  |  |
| C[C@H](Nc1ncnc2[nH]cnc12)c1cc2cccc(Cl)c2c(=O)n1-c1ccccc1 [DUVELISIB] | > 30 | > 30 | > 50 |  | > 30 |  |
| NCC1(CC(=O)O)CCCCC1 [GABAPENTIN] | > 30 | > 30 | > 30 |  |  | > 30 |
| C[C@@H](O)[C@H]1C(=O)N2C(C(=O)O)=C(SCCN=CN)C[C@H]12 [IMIPENEM ANHYDROUS] | > 300 | > 300 |  |  |  |  |
| O=C1[C@@H]2[C@H]3CC[C@H](C3)[C@@H]2C(=O)N1C[C@@H]1CCCC[C@H]1CN1CCN(c2nsc3ccccc23)CC1 [LURASIDONE] | > 30 | > 10 | 41 |  | > 30 | > 30 |
| CO[C@@H]1[C@@H](OC(N)=O)[C@@H](O)[C@H](Oc2ccc3c(O)c(NC(=O)c4ccc(O)c(CC=C(C)C)c4)c(=O)oc3c2C)OC1(C)C [NOVOBIOCIN] | > 30 | > 30 | > 50 |  |  |  |
| CC(=O)SCC(Cc1ccccc1)C(=O)NCC(=O)OCc1ccccc1 (stereo not given) [RACECADOTRIL] |  | > 30 |  | > 30 |  |  |
| CC(C)(CO)c1cc2cc(NC(=O)C3(c4ccc5c(c4)OC(F)(F)O5)CC3)c(F)cc2n1C[C@@H](O)CO [TEZACAFTOR] | > 30 | > 30 | 42 |  |  |  |
| Nc1c2c(nc3ccccc13)CCCC2O (stereo not given) [VELNACRINE] | > 30 | > 30 |  |  |  |  |
